One test relates to SKBr3. The test is described as follows: Nexin assay for apoptosis (flow cytometry). The format is cell-based, human. The note with it: 50 μM or 100 μM Q10, 24 hours. The source says:
The 7AAD dye will enter into cells with permeabilized cell membranes; primarily those cells that are in late apoptosis. Annexin-V-PE is a dye that binds to Phosphotidyl serine, which is exposed on the outer surface of the plasma membrane in early apoptotic cells. The Nexin reagent thus can be used to differentiate between different populations of apoptotic cells in a flow cytometer.
A general note: Flow cytometry measures light scatter and fluorescence of single cells or particles in a stream.

Test [1] has as its system Lactate Dehydrogenase (LDH). The test is described as follows: Western blot, Lactate Dehydrogenase levels. The format is cell-based, human. The method, then:
In this experiment, the cells were additionally treated with either 5 mM glucose (“5G”) or 22 mM glucose (“22G”). The samples derived from the cells were processed and run on a 4-12% Bis-Tris Novex NuPAGE gel as described above. The gels were run, transferred and stained essentially as described above.
After transfer each blot was dried for 15-20 minutes, activated with methanol for 5 seconds, washed with water for 5 minutes, and TBST for 15 minutes. The blots were blocked for 1 hour with 5% blocking reagent in TBS-T at room temperature and then washed 3 times with TBS-T (1×-15′; 2×5′ each) and probed with the primary antibody for Lactate Dehydrogenase (abcam ab2101; polyclonal) in 5% BSA (at 1:1000 dilutions) by incubation overnight at 4 deg C. with shaking. After the overnight incubation with primary antibody for Lactate Dehydrogenase, the blots were washed 3 times with TBS-T (1×-15′; 2×5′ each) and probed with the secondary antibody (rabbit antigoat; 1:10,000 dilution) for 1 h at room temperature. After 1 h of incubation with secondary antibodies, the blots were washed 3 times with TBS-T (1×-15′; 2×5′ each) and then incubated with ECF reagent for 5 mins and then each blot scanned with 5100 Fuji Laser scanner at 25 uM resolution, 16 bit, green laser, at 400V and at 500 V.
In this experiment, the cells were additionally treated with either 5 mM glucose (“5G”) or 22 mM glucose (“22G”). The samples derived from the cells were processed and the gels were run, transferred, stained and scanned essentially as described above.
The levels of LDH and PDH were determined by probing the blots successively with primary antibodies for LDH and PDH, essentially as described above.
The above blots were stripped by incubating for 30 minutes with methanol, followed by two 10 minute washes with TBS-T, then 30 minutes of incubation with Stripping buffer at 50 deg C., and followed by two washes with 100 ml or more of TBS-T for 30′ each. The blots were scanned in laser scanner to check for complete stripping. […]

Take `COC1=C(OC)C(=O)C(C/C=C(\C)CC/C=C(\C)CC/C=C(\C)CC/C=C(\C)CC/C=C(\C)CC/C=C(\C)CC/C=C(\C)CC/C=C(\C)CC/C=C(\C)CCC=C(C)C)=C(C)C1=O` [Q10, Coenzyme Q10]: the “early and late apoptosis” value in the test on SKBr3 is “did not show any significant increases of early and late apoptosis”. In addition, the “Lactate Dehydrogenase Normalized Volume (24 h)” value in test [1] (HepG2, 5g glucose, 24 h, amount 50) was found to be 7900. Moreover, the LDH expression result in test [1] (cancer) is “reduced”; in test [1] (normal cells), “minimal effect”.
